Results published in patent publication US9120893B1, “Alkoxy polycarbonates, bisphenol monomers and methods of making and using the same” (SABIC Global Technologies B.V., priority 2014, dated 2015).

How the values were obtained:
[1] = biological target: T1, recombinant human estradiol receptors (rhER) alpha (α) (Homo sapiens, UniProt P03372); experiment: in vitro competitive binding assay, displacement of radiolabeled 17b-estradiol, rhER alpha; conditions: result in words; highest concentration 2.5×E-4 M
T1 sequence (P03372 1-595): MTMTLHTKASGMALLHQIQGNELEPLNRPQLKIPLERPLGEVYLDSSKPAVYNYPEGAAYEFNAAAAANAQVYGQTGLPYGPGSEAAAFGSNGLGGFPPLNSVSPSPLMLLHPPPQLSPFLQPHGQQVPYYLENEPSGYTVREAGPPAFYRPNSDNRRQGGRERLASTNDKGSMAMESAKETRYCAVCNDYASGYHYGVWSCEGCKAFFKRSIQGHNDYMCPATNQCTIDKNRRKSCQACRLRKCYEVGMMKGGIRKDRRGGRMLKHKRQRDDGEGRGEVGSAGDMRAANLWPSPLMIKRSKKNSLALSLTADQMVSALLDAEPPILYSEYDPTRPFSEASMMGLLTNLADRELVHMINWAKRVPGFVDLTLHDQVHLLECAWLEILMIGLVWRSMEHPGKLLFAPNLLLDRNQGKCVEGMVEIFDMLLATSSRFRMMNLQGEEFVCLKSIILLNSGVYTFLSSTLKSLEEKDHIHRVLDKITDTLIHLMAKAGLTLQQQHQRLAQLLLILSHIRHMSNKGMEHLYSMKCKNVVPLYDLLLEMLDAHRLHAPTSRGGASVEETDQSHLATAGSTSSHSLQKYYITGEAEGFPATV

[2] = biological target: recombinant human estradiol receptors (rhER) beta 1 (β1) (Homo sapiens, UniProt Q92731); experiment: in vitro competitive binding assay, displacement of radiolabeled 17b-estradiol, rhER beta 1; conditions: result in words; highest concentration 2.5×E-4 M
recombinant human estradiol receptors (rhER) beta 1 (β1), sequence (Q92731 whole entry): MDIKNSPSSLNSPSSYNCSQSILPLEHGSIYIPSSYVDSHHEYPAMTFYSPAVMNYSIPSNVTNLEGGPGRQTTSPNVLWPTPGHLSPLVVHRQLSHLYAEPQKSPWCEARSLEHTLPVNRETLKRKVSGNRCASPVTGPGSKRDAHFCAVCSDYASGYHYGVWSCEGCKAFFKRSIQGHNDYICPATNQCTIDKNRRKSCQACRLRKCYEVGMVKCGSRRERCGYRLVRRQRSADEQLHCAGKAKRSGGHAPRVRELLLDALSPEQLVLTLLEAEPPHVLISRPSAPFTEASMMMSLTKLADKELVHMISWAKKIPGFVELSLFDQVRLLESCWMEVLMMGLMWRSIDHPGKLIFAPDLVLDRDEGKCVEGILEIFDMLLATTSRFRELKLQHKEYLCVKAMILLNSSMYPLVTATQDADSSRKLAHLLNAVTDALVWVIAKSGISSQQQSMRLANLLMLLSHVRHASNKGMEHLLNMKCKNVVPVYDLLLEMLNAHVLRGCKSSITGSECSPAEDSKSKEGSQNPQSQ

estradiol binding activity, alpha receptor binding [1]: no estradiol binding activity | estradiol binding activity, beta receptor binding [2]: no estradiol binding activity
SMILES: COc1cc(C(C)(C)c2ccc(O)c(OC)c2)ccc1O [compound 1, 4,4′ (2,2′-isoPropylidene)-Bis(ortho Methoxy)Phenol (PBMP)]
